{
  "source": "PubChem BioAssay (NCI)",
  "assay_in_all_cases": "inhibition of tumour cell growth, NCI panel, 384-well format",
  "key": {"[1]": {"tested_on": "MOLT-4 leukemia"}, "[2]": {"tested_on": "NCI-H23 lung"}, "[3]": {"tested_on": "NCI-H322M lung"}, "[4]": {"tested_on": "NCI-H460 NSCLC"}, "[5]": {"tested_on": "NCI-H522 lung"}, "[6]": {"tested_on": "NCI/ADR-RES ovarian"}, "[7]": {"tested_on": "OVCAR-3 ovarian"}, "[8]": {"tested_on": "OVCAR-4 ovarian"}, "[9]": {"tested_on": "OVCAR-5 ovarian"}, "[10]": {"tested_on": "OVCAR-8 ovarian"}, "[11]": {"tested_on": "PC-3 prostate"}, "[12]": {"tested_on": "RPMI-8226 leukemia"}, "[13]": {"tested_on": "RXF 393 renal"}, "[14]": {"tested_on": "SF-268 CNS"}, "[15]": {"tested_on": "SF-295 CNS"}, "[16]": {"tested_on": "SF-539 CNS"}, "[17]": {"tested_on": "SK-MEL-28 melanoma"}, "[18]": {"tested_on": "SK-MEL-5 melanoma"}, "[19]": {"tested_on": "SK-OV-3 ovarian"}, "[20]": {"tested_on": "SN12C renal"}, "[21]": {"tested_on": "SNB-19 CNS"}, "[22]": {"tested_on": "SNB-75 CNS"}, "[23]": {"tested_on": "SR leukemia"}, "[24]": {"tested_on": "SW-620 colon"}, "[25]": {"tested_on": "T-47D breast"}, "[26]": {"tested_on": "TK-10 renal"}, "[27]": {"tested_on": "UACC-62 melanoma"}, "[28]": {"tested_on": "UO-31 renal"}},
  "note": "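GI50: concentration for 50% inhibition of growth. The concentration for full growth arrest is given as TGI.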",
  "data": [
    {"molecule": "O=C(NCCCc1cn[nH]c1)c1ccc(-c2ccncc2)c(C#Cc2ccc(F)cc2)c1", "values": [
      {"measurement": "TGI", "setting": "[1]", "value": "< 10", "unit": "nM"},
      {"measurement": "GI50", "setting": "[2]", "value": "< 10", "unit": "nM"},
      {"measurement": "TGI", "setting": "[2]", "value": "< 10", "unit": "nM"},
      {"measurement": "GI50", "setting": "[3]", "value": "< 10", "unit": "nM"},
      {"measurement": "TGI", "setting": "[3]", "value": "< 10", "unit": "nM"},
      {"measurement": "GI50", "setting": "[4]", "value": "< 10", "unit": "nM"},
      {"measurement": "TGI", "setting": "[4]", "value": 13.5, "unit": "nM"},
      {"measurement": "GI50", "setting": "[5]", "value": "< 10", "unit": "nM"},
      {"measurement": "TGI", "setting": "[5]", "value": "< 10", "unit": "nM"},
      {"measurement": "GI50", "setting": "[6]", "value": "< 10", "unit": "nM"},
      {"measurement": "TGI", "setting": "[6]", "value": "< 10", "unit": "nM"},
      {"measurement": "GI50", "setting": "[7]", "value": "< 10", "unit": "nM"},
      {"measurement": "TGI", "setting": "[7]", "value": "< 10", "unit": "nM"},
      {"measurement": "GI50", "setting": "[8]", "value": "< 10", "unit": "nM"},
      {"measurement": "TGI", "setting": "[8]", "value": "< 10", "unit": "nM"},
      {"measurement": "GI50", "setting": "[9]", "value": "< 10", "unit": "nM"},
      {"measurement": "TGI", "setting": "[9]", "value": "< 10", "unit": "nM"},
      {"measurement": "GI50", "setting": "[10]", "value": "< 10", "unit": "nM"},
      {"measurement": "TGI", "setting": "[10]", "value": "< 10", "unit": "nM"},
      {"measurement": "GI50", "setting": "[11]", "value": "< 10", "unit": "nM"},
      {"measurement": "TGI", "setting": "[11]", "value": "< 10", "unit": "nM"},
      {"measurement": "GI50", "setting": "[12]", "value": "< 10", "unit": "nM"},
      {"measurement": "TGI", "setting": "[12]", "value": "< 10", "unit": "nM"},
      {"measurement": "GI50", "setting": "[13]", "value": "< 10", "unit": "nM"},
      {"measurement": "TGI", "setting": "[13]", "value": "< 10", "unit": "nM"},
      {"measurement": "GI50", "setting": "[14]", "value": "< 10", "unit": "nM"},
      {"measurement": "TGI", "setting": "[14]", "value": "< 10", "unit": "nM"},
      {"measurement": "GI50", "setting": "[15]", "value": "< 10", "unit": "nM"},
      {"measurement": "TGI", "setting": "[15]", "value": "< 10", "unit": "nM"},
      {"measurement": "GI50", "setting": "[16]", "value": "< 10", "unit": "nM"},
      {"measurement": "TGI", "setting": "[16]", "value": "< 10", "unit": "nM"},
      {"measurement": "GI50", "setting": "[17]", "value": "< 10", "unit": "nM"},
      {"measurement": "TGI", "setting": "[17]", "value": "< 10", "unit": "nM"},
      {"measurement": "GI50", "setting": "[18]", "value": "< 10", "unit": "nM"},
      {"measurement": "TGI", "setting": "[18]", "value": "< 10", "unit": "nM"},
      {"measurement": "GI50", "setting": "[19]", "value": "< 10", "unit": "nM"},
      {"measurement": "TGI", "setting": "[19]", "value": "< 10", "unit": "nM"},
      {"measurement": "GI50", "setting": "[20]", "value": "< 10", "unit": "nM"},
      {"measurement": "TGI", "setting": "[20]", "value": "< 10", "unit": "nM"},
      {"measurement": "GI50", "setting": "[21]", "value": "< 10", "unit": "nM"},
      {"measurement": "TGI", "setting": "[21]", "value": "< 10", "unit": "nM"},
      {"measurement": "GI50", "setting": "[22]", "value": "< 10", "unit": "nM"},
      {"measurement": "TGI", "setting": "[22]", "value": "< 10", "unit": "nM"},
      {"measurement": "GI50", "setting": "[23]", "value": "< 10", "unit": "nM"},
      {"measurement": "TGI", "setting": "[23]", "value": "< 10", "unit": "nM"},
      {"measurement": "GI50", "setting": "[24]", "value": "< 10", "unit": "nM"},
      {"measurement": "TGI", "setting": "[24]", "value": "< 10", "unit": "nM"},
      {"measurement": "GI50", "setting": "[25]", "value": "< 10", "unit": "nM"},
      {"measurement": "TGI", "setting": "[25]", "value": "< 10", "unit": "nM"},
      {"measurement": "GI50", "setting": "[26]", "value": "< 10", "unit": "nM"},
      {"measurement": "TGI", "setting": "[26]", "value": "< 10", "unit": "nM"},
      {"measurement": "GI50", "setting": "[27]", "value": "< 10", "unit": "nM"},
      {"measurement": "TGI", "setting": "[27]", "value": "< 10", "unit": "nM"},
      {"measurement": "GI50", "setting": "[28]", "value": "< 10", "unit": "nM"},
      {"measurement": "TGI", "setting": "[28]", "value": "< 10", "unit": "nM"}
    ]}
  ]
}
